Test results reported in patent US20240228459A1 (Boundless Bio, Inc., priority 2022, published 2024).

Key:
Wee1 = Wee1 (Homo sapiens, UniProt P30291); assay: Wee1 pCDK1 activity (known assay); format: cell-based
Description: (§1) The Wee1 pCDK1 and PLK1 activities were determined using known assays.

PLK1 = PLK1 (Homo sapiens, UniProt P53350); assay: PLK1 activity (known assay); format: biochemical
Description: as §1

Sequence of PLK1 (P53350 whole entry, species assumed): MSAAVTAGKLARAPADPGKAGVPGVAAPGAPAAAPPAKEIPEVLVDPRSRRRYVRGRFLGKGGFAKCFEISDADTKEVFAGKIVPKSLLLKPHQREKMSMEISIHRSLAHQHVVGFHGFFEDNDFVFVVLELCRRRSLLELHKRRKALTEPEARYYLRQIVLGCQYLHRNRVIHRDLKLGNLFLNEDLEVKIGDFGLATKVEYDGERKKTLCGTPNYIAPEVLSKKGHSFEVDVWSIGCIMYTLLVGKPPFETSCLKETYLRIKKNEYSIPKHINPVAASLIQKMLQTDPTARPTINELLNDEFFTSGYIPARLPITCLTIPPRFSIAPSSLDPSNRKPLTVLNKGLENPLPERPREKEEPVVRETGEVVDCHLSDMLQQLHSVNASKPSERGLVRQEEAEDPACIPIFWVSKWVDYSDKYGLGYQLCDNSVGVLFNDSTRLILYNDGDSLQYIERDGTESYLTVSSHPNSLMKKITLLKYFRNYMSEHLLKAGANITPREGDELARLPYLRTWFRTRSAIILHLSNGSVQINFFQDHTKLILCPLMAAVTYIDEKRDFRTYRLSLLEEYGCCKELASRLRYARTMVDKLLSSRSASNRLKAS
Sequence of Wee1 (P30291 whole entry, species assumed): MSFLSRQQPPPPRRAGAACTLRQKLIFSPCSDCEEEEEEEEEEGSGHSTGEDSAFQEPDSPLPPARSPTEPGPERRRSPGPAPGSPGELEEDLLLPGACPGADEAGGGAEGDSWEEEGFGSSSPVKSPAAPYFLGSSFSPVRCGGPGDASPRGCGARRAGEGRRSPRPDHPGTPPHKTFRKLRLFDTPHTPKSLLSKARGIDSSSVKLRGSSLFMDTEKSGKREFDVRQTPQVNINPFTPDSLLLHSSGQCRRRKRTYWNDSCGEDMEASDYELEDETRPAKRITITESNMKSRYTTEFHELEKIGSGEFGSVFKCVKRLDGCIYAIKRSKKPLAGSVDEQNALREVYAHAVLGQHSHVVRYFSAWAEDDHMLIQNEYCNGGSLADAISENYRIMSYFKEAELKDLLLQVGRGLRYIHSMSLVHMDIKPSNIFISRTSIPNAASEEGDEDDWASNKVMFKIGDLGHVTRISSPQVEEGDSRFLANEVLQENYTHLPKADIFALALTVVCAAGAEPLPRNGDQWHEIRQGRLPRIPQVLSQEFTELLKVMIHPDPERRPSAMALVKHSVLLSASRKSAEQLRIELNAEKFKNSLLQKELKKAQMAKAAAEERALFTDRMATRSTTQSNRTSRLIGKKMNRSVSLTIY

SMILES | IC50 (Wee1) [nM] | IC50 (PLK1) [nM]
CCC1(O)CCc2ccc(Nc3nc(Nc4ccc(C5CCN(C)CC5)c(C)c4)ncc3C#N)nc21 (single isomer, unassigned) [Example 22] | 250 to 500 | 100 to 250
CCC1(O)CCc2ccc(Nc3nc(Nc4ccc(N5CCN(C)CC5C)cc4)ncc3C#N)nc21 (centres unmarked) [Example 51, 2-[4-(2,4-dimethylpiperazin-1-yl)anilino]-4-[(7-ethyl-7-hydroxy-5,6-dihydrocyclopenta[b]pyridin-2-yl)amino]pyrimidine-5-carbonitrile] | 100 to 250 | 250 to 500
CCC1(O)CCc2ccc(Nc3nc(Nc4ccc(N5CCNCC5)c(C)c4)ncc3C#N)nc21 (centres unmarked) [Example 17, 4-[(7-ethyl-7-hydroxy-5,6-dihydrocyclopenta[b]pyridin-2-yl)amino]-2-(3-methyl-4-piperazin-1-yl-anilino)pyrimidine-5-carbonitrile] | ≤ 100 | ≤ 100
CCC1(O)CCc2ccc(Nc3nc(Nc4ccc5c(c4)CNCC54CC4)ncc3C#N)nc21 (centres unmarked) [Example 55, 4-[(7-ethyl-7-hydroxy-5,6-dihydrocyclopenta[b]pyridin-2-yl)amino]-2-(spiro[2,3-dihydro-1H-isoquinoline-4,1′-cyclopropane]-7-ylamino)pyrimidine-5-carbonitrile] | > 1000 | ≤ 100
CCC1(O)CCc2ccc(Nc3nc(Nc4ccc(N5CCN(C)CC5)cc4)ncc3C#N)nc21 (centres unmarked) [Example 15, 4-[(7-ethyl-7-hydroxy-5,6-dihydrocyclopenta[b]pyridin-2-yl)amino]-2-[4-(4-methylpiperazin-1-yl)anilino]pyrimidine-5-carbonitrile] | 250 to 500 | ≤ 100
CN1CCC(O)(c2ccc(Nc3ncc(C#N)c(Nc4cccc(N5CCCC5=O)n4)n3)cc2)CC1 [Example 78, 2-[4-(4-hydroxy-1-methyl-4-piperidyl)anilino]-4-[[6-(2-oxopyrrolidin-1-yl)-2-pyridyl]amino]pyrimidine-5-carbonitrile] | > 1000 | > 1000
Cc1cc(Nc2ncc(C#N)c(Nc3cccc(N4CCCC4=O)n3)n2)cc2c1CNCC2 [Example 77, 2-[(8-methyl-1,2,3,4-tetrahydroisoquinolin-6-yl)amino]-4-[[6-(2-oxopyrrolidin-1-yl)-2-pyridyl]amino]pyrimidine-5-carbonitrile] | 500 to 1000 | 
COCC1CN(C)CCN1c1ccc(Nc2ncc(C#N)c(Nc3cccc(N4CCCC4=O)n3)n2)cc1 (centres unmarked) [Example 69, 2-[4-[2-(methoxymethyl)-4-methyl-piperazin-1-yl]anilino]-4-[[6-(2-oxopyrrolidin-1-yl)-2-pyridyl]amino]pyrimidine-5-carbonitrile] | 250 to 500 | > 1000
CN1CCc2cc(Nc3ncc(C#N)c(Nc4cccc(N5CCOC5=O)n4)n3)cc(Cl)c2C1 [Example 13, 2-[(8-chloro-2-methyl-3,4-dihydro-1H-isoquinolin-6-yl)amino]-4-[[6-(2-oxooxazolidin-3-yl)-2-pyridyl]amino]pyrimidine-5-carbonitrile] | ≤ 100 | > 1000
CCC1(O)CCc2ccc(Nc3nc(Nc4ccc5c(c4)CCN(C)C5(C)C)ncc3C#N)nc21 (single isomer, unassigned) [Example 28] | 250 to 500 | > 1000
CCC1(O)CCc2ccc(Nc3nc(Nc4ccc(N5CCN(C)CC5)c(C)c4)ncc3C#N)nc21 (centres unmarked) [Example 16, 4-[(7-ethyl-7-hydroxy-5,6-dihydrocyclopenta[b]pyridin-2-yl)amino]-2-[3-methyl-4-(4-methylpiperazin-1-yl)anilino]pyrimidine-5-carbonitrile] | 100 to 250 | ≤ 100
CN1CCc2cc(Nc3ncc(C#N)c(Nc4ccc5c(n4)C(C)(O)CC5)n3)ccc2C1(C)C (centres unmarked) [Example 61, 4-[(7-hydroxy-7-methyl-5,6-dihydrocyclopenta[b]pyridin-2-yl)amino]-2-[(1,1,2-trimethyl-3,4-dihydroisoquinolin-6-yl)amino]pyrimidine-5-carbonitrile] | 250 to 500 | > 1000
CCC1(O)CCc2ccc(Nc3nc(Nc4ccc(C5CCN(C)CC5)c(COC)c4)ncc3C#N)nc21 (centres unmarked) [Example 44, 4-[(7-ethyl-7-hydroxy-5,6-dihydrocyclopenta[b]pyridin-2-yl)amino]-2-[3-(methoxymethyl)-4-(1-methyl-4-piperidyl)anilino]pyrimidine-5-carbonitrile] | 100 to 250 | 250 to 500
CN1CCN(c2ccc(Nc3ncc(C#N)c(Nc4cccc(N5CCCC5)n4)n3)cc2)CC1 [Example 7, 2-[4-(4-methylpiperazin-1-yl)anilino]-4-[(6-pyrrolidin-1-yl-2-pyridyl)amino]pyrimidine-5-carbonitrile] | 100 to 250 | ≤ 100
CCC1(O)CCc2ccc(Nc3nc(Nc4cc(C)c5c(c4)CCN(C)C5)ncc3C#N)nc21 (centres unmarked) [Example 47, 2-[(2,8-dimethyl-3,4-dihydro-1H-isoquinolin-6-yl)amino]-4-[(7-ethyl-7-hydroxy-5,6-dihydrocyclopenta[b]pyridin-2-yl)amino]pyrimidine-5-carbonitrile] | ≤ 100 | 250 to 500
CCC1(O)CCc2ccc(Nc3nc(Nc4ccc(N5CCNC6(CC6)C5)cc4)ncc3C#N)nc21 (centres unmarked) [Example 31, 2-[4-(4,7-diazaspiro[2.5]octan-7-yl)anilino]-4-[(7-ethyl-7-hydroxy-5,6-dihydrocyclopenta[b]pyridin-2-yl)amino]pyrimidine-5-carbonitrile] | > 1000 | 100 to 250
CCC1(O)CCc2ccc(Nc3nc(Nc4ccc(N5CCC6(CCN(C)CC6)CC5)cc4)ncc3C#N)nc21 (centres unmarked) [Example 39, 4-[(7-ethyl-7-hydroxy-5,6-dihydrocyclopenta[b]pyridin-2-yl)amino]-2-[4-(9-methyl-3,9-diazaspiro[5.5]undecan-3-yl)anilino]pyrimidine-5-carbonitrile] | 100 to 250 | ≤ 100
CCCC1(O)CCc2ccc(Nc3nc(Nc4ccc(N5CCN(C)CC5)cc4)ncc3C#N)nc21 (centres unmarked) [Example 2, 4-[(7-hydroxy-7-propyl-5,6-dihydrocyclopenta[b]pyridin-2-yl)amino]-2-[4-(4-methylpiperazin-1-yl)anilino]pyrimidine-5-carbonitrile] | ≤ 100 | ≤ 100
CCC1CN(C)CCN1c1ccc(Nc2ncc(C#N)c(Nc3cccc(N4CCCC4=O)n3)n2)cc1 (centres unmarked) [Example 68, 2-[4-(2-ethyl-4-methyl-piperazin-1-yl)anilino]-4-[[6-(2-oxopyrrolidin-1-yl)-2-pyridyl]amino]pyrimidine-5-carbonitrile] | 100 to 250 | > 1000
CN1CC2CCC(C1)N2c1ccc(Nc2ncc(C#N)c(Nc3ccc4c(n3)C(C)(O)CC4)n2)cc1 (centres unmarked) [Example 57, 4-[(7-hydroxy-7-methyl-5,6-dihydrocyclopenta[b]pyridin-2-yl)amino]-2-[4-(3-methyl-3,8-diazabicyclo[3.2.1]octan-8-yl)anilino]pyrimidine-5-carbonitrile] | 250 to 500 | > 1000
CCC1(O)CCc2ccc(Nc3nc(Nc4cc(F)c(C5CCN(C)CC5)c(F)c4)ncc3C#N)nc21 (centres unmarked) [Example 40, 2-[3,5-difluoro-4-(1-methyl-4-piperidyl)anilino]-4-[(7-ethyl-7-hydroxy-5,6-dihydrocyclopenta[b]pyridin-2-yl)amino]pyrimidine-5-carbonitrile] | 500 to 1000 | > 1000
CCC1(O)CCc2ccc(Nc3nc(Nc4ccc(C5CCN(C)CC5)c(OC)c4)ncc3C#N)nc21 (centres unmarked) [Example 45, 4-[(7-ethyl-7-hydroxy-5,6-dihydrocyclopenta[b]pyridin-2-yl)amino]-2-[3-methoxy-4-(1-methyl-4-piperidyl)anilino]pyrimidine-5-carbonitrile] | ≤ 100 | ≤ 100
CN1CCN(c2ccc(Nc3ncc(C#N)c(Nc4ccc5c(n4)C(C)(O)CC5)n3)cc2)CC1 (centres unmarked) [Example 8, 4-[(7-hydroxy-7-methyl-5,6-dihydrocyclopenta[b]pyridin-2-yl)amino]-2-[4-(4-methylpiperazin-1-yl)anilino]pyrimidine-5-carbonitrile] | 100 to 250 | ≤ 100
CCC1(O)CCc2ccc(Nc3nc(Nc4ccc(C5CCN(C)CC5)c(C)c4)ncc3C#N)nc21 (single isomer, unassigned) [Example 21] | ≤ 100 | ≤ 100
CCC1(O)CCc2ccc(Nc3nc(Nc4ccc(N5C6CCC5CN(C)C6)cc4)ncc3C#N)nc21 (single isomer, unassigned) [Example 37] | > 1000 | > 1000
COCc1cc(Nc2ncc(C#N)c(Nc3cccc(N4CCCC4=O)n3)n2)ccc1N1CCN(C)CC1 [Example 66, 2-[3-(methoxymethyl)-4-(4-methylpiperazin-1-yl)anilino]-4-[[6-(2-oxopyrrolidin-1-yl)-2-pyridyl]amino]pyrimidine-5-carbonitrile] | 250 to 500 | > 1000
CN1CCC(c2ccc(Nc3ncc(C#N)c(Nc4cccc(N5CCCC5=O)n4)n3)cc2)CC1=O (centres unmarked) [Example 67, 2-[4-(1-methyl-2-oxo-4-piperidyl)anilino]-4-[[6-(2-oxopyrrolidin-1-yl)-2-pyridyl]amino]pyrimidine-5-carbonitrile] | 500 to 1000 | > 1000
CCN1CCCc2ccc(Nc3nc(Nc4ccc(N5CCN(C)CC5)cc4)ncc3C#N)nc21 [Example 6, 4-[(8-ethyl-6,7-dihydro-5H-1,8-naphthyridin-2-yl)amino]-2-[4-(4-methylpiperazin-1-yl)anilino]pyrimidine-5-carbonitrile] | 500 to 1000 | 
Cc1cc(Nc2ncc(C#N)c(Nc3cccc(N4CCOC4=O)n3)n2)ccc1C1CCN(C)CC1 [Example 11, 2-[3-methyl-4-(1-methyl-4-piperidyl)anilino]-4-[[6-(2-oxooxazolidin-3-yl)-2-pyridyl]amino]pyrimidine-5-carbonitrile] | 100 to 250 | 
CN1CCN(c2ccc(Nc3ncc(C#N)c(Nc4cccc(-n5ccccc5=O)n4)n3)cc2)CC1 [Example 3, 2-[4-(4-methylpiperazin-1-yl)anilino]-4-[[6-(2-oxo-1-pyridyl)-2-pyridyl]amino]pyrimidine-5-carbonitrile] | 500 to 1000 | 
